From PMC9600589, “The Heptaprenyl Diphosphate Synthase (Coq1) Is the Target of a Lipophilic Bisphosphonate That Protects Mice against Toxoplasma gondii Infection” (mBio, 2022)

Columns and labels:
[1] = system: T. gondii RH strain; test: Acute lethal infection of mice with RH tachyzoites; format: in vivo, Swiss Webster mice; conditions: mice infected with 100 RH tachyzoites, intraperitoneal, daily for 10 days from 6 h postinfection
Method: (§1) At this point, live mice were inoculated with δ-luciferin for visualization of the infection in an IVIS illumination system ([34]).
Experiments were carried out as described previously ([49]) using 100 T. gondii tachyzoites of the RH strain to infect Webster mice. Drugs were dissolved in 10% kolliphor HS 15 and were inoculated intraperitoneally. Treatment was initiated 6 h after infection and administered daily for 10 days.

[2] = system: T. cruzi; parameters: method as in PMID 24789335; conditions: cited from earlier work
[3] = system: T. gondii RH-cLuc-GFP; test: Dissemination of infection, luciferase-expressing RH parasites, in vivo imaging; parameters: species or system Swiss Webster mice; conditions: 1 mg/kg single daily dose for 8 days
Description: as §1

[4] = system: hTERT cells; test: Cytotoxicity to hTERT cells (alamarBlue); conditions: for % Inhibition (cytotoxicity): hTERT cells
Method: The cytotoxicity was tested using an alamarBlue assay as described by Recher et al. ([67]).

[5] = system: T. gondii RH parental strain; test: Plaque assay measuring growth reversibility after drug removal; format: cell-based, Toxoplasma gondii; conditions: 7 days with 1 μM or 2 μM, then 7 days without drug

SMILES: CCCCCCCCCCn1cc[n+](CC(P(=O)([O-])O)P(=O)(O)O)c1 (stereo not shown) [BPH-1218]
- ED50 [1]: 0.69 mg/kg/day
- decrease in UQ9 biosynthesis [2]: 40%
- effect on virulence and dissemination of the infection [3]: remarkable effect on both virulence and dissemination of the infection
- toxicity against human fibroblast cells [4]: very little toxicity
- % Inhibition (cytotoxicity) ([4]; at 4X EC50 (concentration in μM in brackets)): 4.30 ± 2.31%
- % Inhibition (cytotoxicity) ([4]; at 10X EC50 (concentration in μM in brackets)): 10.28 ± 1.07%
- reversibility of growth inhibition after drug removal [5]: irreversible
